Measurements as given in patent US20250154115A1, “ARYLBENZOISOXAZOLE COMPOUNDS AS IP6K AND IPMK INHIBITORS AND METHODS OF USE THEREOF” (THE UNIVERSITY OF NORTH CAROLINA AT CHAPEL HILL, priority 2022, published 2025).

Experiments:
IPMK = IPMK (Homo sapiens (Human), UniProt Q8NFU5); assay: Enzyme-coupled assay, IPMK IC50; assay type: biochemical; settings: enzyme-coupled assay; Table 4
IP6K1 = IP6K1 (Homo sapiens (Human), UniProt Q92551); assay: Enzyme-coupled assay of IP6K1 activity (Dipp1-coupled, malachite green Pi release); assay type: biochemical; settings: enzyme-coupled assay; Table 4
Sequence of IP6K1 (Q92551 whole entry): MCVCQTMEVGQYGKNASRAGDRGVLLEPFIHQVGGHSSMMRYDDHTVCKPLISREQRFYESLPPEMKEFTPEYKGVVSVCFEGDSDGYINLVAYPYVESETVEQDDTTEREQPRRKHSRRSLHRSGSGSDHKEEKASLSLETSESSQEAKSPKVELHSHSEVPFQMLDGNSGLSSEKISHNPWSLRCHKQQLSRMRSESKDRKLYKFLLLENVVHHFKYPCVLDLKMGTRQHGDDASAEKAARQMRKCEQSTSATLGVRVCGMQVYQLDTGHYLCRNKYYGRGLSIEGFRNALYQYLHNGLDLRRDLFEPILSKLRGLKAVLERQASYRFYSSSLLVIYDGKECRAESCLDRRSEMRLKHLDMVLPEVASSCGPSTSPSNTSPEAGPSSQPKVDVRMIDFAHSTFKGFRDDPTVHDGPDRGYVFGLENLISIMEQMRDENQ
Description: (§1) […] The cells were disrupted using a constant cell disruption system (Constant Systems) under 20 kPsi.
(§2) Pi release was determined with a malachite green colorimetric assay.^45 Where indicated, TNP (Cayman Chemical) was added to the assays (FIG. 2A-E).

IP6K2 = IP6K2 (Homo sapiens (Human), UniProt Q9UHH9); assay: Enzyme-coupled assay of IP6K2 activity (Dipp1-coupled, malachite green Pi release); assay type: biochemical; settings: enzyme-coupled assay; Table 4
Sequence of IP6K2 (Q9UHH9 whole entry): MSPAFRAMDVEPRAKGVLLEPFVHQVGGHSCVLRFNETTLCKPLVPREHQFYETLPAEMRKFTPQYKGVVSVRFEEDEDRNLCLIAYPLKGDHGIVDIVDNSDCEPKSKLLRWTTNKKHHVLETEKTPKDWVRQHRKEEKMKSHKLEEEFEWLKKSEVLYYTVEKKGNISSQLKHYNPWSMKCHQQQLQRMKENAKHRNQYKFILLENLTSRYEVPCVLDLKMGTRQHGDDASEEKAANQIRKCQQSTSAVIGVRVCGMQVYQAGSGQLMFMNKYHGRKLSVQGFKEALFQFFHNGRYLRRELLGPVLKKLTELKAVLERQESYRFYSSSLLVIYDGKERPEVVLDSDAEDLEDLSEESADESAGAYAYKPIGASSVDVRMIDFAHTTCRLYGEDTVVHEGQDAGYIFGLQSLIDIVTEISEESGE
Description: as §1, §2

IP6K3 = IP6K3 (Homo sapiens (Human), UniProt Q96PC2); assay: Enzyme-coupled assay of IP6K3 activity (Dipp1-coupled, malachite green Pi release); assay type: biochemical; settings: enzyme-coupled assay; Table 4
Sequence of IP6K3 (Q96PC2 whole entry): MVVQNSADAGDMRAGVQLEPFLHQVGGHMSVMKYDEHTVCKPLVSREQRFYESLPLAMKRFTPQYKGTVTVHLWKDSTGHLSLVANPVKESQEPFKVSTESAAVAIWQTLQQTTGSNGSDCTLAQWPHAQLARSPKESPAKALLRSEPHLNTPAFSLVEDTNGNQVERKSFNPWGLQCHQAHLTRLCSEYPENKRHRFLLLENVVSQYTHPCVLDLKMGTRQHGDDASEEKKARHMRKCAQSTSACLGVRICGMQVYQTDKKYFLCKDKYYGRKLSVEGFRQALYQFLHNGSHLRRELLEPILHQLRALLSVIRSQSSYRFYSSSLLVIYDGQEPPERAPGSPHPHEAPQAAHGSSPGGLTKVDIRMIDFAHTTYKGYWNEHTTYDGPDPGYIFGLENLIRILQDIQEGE

diet-induced obese mice = settings: cited from earlier work

Sequence of IPMK (Q8NFU5 whole entry, species assumed): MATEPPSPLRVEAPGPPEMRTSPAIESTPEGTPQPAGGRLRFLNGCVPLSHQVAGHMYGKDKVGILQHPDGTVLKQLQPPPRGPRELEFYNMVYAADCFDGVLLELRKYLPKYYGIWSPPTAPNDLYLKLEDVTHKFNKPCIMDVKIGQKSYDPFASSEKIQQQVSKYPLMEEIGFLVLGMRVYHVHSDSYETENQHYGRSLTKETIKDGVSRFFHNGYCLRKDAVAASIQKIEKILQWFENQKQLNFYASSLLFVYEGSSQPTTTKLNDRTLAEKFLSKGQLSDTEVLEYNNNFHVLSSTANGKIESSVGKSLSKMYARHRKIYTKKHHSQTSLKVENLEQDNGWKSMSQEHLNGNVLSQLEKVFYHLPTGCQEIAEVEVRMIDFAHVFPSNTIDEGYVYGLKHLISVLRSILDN

Structure (SMILES) | IC50 (IPMK) | IC50 (IP6K1) | IC50 (IP6K2) | IC50 (IP6K3) | Effect of treatment on obesity, insulin resistance and fatty liver (diet-induced obese mice)
Fc1ccc(-c2onc3ccc(-c4nnn[nH]4)cc23)cc1 [Compound 63] | 10 to 100 nM | 10 to 100 nM | 10 to 100 nM | 100 to 1000 nM | –
FC(F)(F)Oc1ccc(-c2onc3ccc(-c4nnn[nH]4)cc23)cc1 [Compound 66] | 10 to 100 nM | 10 to 100 nM | 10 to 100 nM | 100 to 1000 nM | –
c1cncc(-c2ccc(-c3onc4ccc(-c5nnn[nH]5)cc34)cc2)c1 [Compound 69] | < 10 nM | 10 to 100 nM | 10 to 100 nM | 100 to 1000 nM | –
c1ccc(Oc2ccc(-c3onc4ccc(-c5nnn[nH]5)cc34)cc2)cc1 [Compound 70] | < 10 nM | 1000 to 100000 nM | 100 to 1000 nM | 100 to 1000 nM | –
O=C(Nc1ccc(-c2onc3ccc(-c4nnn[nH]4)cc23)cc1)C1CC1 [Compound 71] | < 10 nM | 10 to 100 nM | 100 to 1000 nM | < 10 nM | –
O=C(Nc1cccc(-c2onc3ccc(-c4nnn[nH]4)cc23)c1)C1CC1 [Compound 74] | < 10 nM | 10 to 100 nM | 10 to 100 nM | 10 to 100 nM | –
Clc1ccccc1-c1onc2ccc(-c3nnn[nH]3)cc12 [Compound 76] | < 10 nM | 10 to 100 nM | 10 to 100 nM | 100 to 1000 nM | –
CN(C)CCOc1cccc(-c2onc3ccc(-c4nnn[nH]4)cc23)c1 [Compound 78] | < 10 nM | 100 to 1000 nM | 100 to 1000 nM | 100 to 1000 nM | –
CN(C)CCOc1ccc(-c2onc3ccc(-c4nnn[nH]4)cc23)cc1 [Compound 79] | 1000 to 100000 nM | 100 to 1000 nM | 100 to 1000 nM | 100 to 1000 nM | –
O=[N+]([O-])c1ccc(CNc2nc(NCc3cccc(C(F)(F)F)c3)nc3nc[nH]c23)cc1 [TNP, N2-(m-Trifluorobenzyl)-N6-(p-nitrobenzyl)purine] | – | – | – | – | ameliorates obesity, insulin resistance and fatty liver

More lines, main results first:

IC50 (IPMK) | IC50 (IP6K1) | IC50 (IP6K2) | IC50 (IP6K3) | Structure (SMILES) | Effect of treatment on obesity, insulin resistance and fatty liver (diet-induced obese mice)
10 to 100 nM | 10 to 100 nM | 10 to 100 nM | 100 to 1000 nM | Cc1cc(C)cc(-c2onc3ccc(-c4nnn[nH]4)cc23)c1 [Compound 65] | –
10 to 100 nM | 10 to 100 nM | 100 to 1000 nM | 100 to 1000 nM | Clc1ccc(-c2onc3ccc(-c4nnn[nH]4)cc23)cc1Cl [Compound 67] | –
10 to 100 nM | 10 to 100 nM | 10 to 100 nM | < 10 nM | O=C(Nc1ccc(-c2onc3ccc(-c4nnn[nH]4)cc23)cc1)C1CCCC1 [Compound 72] | –
< 10 nM | 10 to 100 nM | 10 to 100 nM | 10 to 100 nM | O=C(Nc1cccc(-c2onc3ccc(-c4nnn[nH]4)cc23)c1)C1CCCC1 [Compound 73] | –
< 10 nM | 100 to 1000 nM | 100 to 1000 nM | 100 to 1000 nM | CC(C)C(=O)Nc1cccc(-c2onc3ccc(-c4nnn[nH]4)cc23)c1 [Compound 75] | –
10 to 100 nM | 10 to 100 nM | 10 to 100 nM | 100 to 1000 nM | COc1ccccc1-c1onc2ccc(-c3nnn[nH]3)cc12 [Compound 77] | –
10 to 100 nM | 10 to 100 nM | 10 to 100 nM | 10 to 100 nM | Clc1cnc(Oc2cccc(-c3onc4ccc(-c5nnn[nH]5)cc34)c2)c(Cl)c1 [Compound 80] | –
10 to 100 nM | 10 to 100 nM | 100 to 1000 nM | 100 to 1000 nM | c1cc(OCCN2CCOCC2)cc(-c2onc3ccc(-c4nnn[nH]4)cc23)c1 [Compound 83] | –
